Laboratory results: patent publication US20160199499A1, “USES OF PH[…] SYNTHETIC TLR7 AGONISTS” (priority 2013, published 2016)
“And” between values parts separate entries of the source, which are not always exact repeats. Equal entries are not always repeated.

Assays:
[1] = test system: West Nile Virus (WNV); assay: West Nile virus s.c. infection model; format: in vivo, C57BL/6 mice
[2] = Body weight monitoring / maximum tolerated dose after pulmonary administration
[3] = test system: CD11c+ dendritic cells; assay: In vivo CFSE labeling of dendritic cells, migration to mediastinal lymph nodes (flow cytometry); set-up: species or system C57BL/6 mice; settings: 1 nmol i.t., 24 h after drug administration
[4] = test system: lung parenchyma; assay: Lung histology (H&E) after i.t. administration; settings: 1 nmol i.t., 6 and 24 h post treatment
[5] = Particle size in PBS; format: physicochemical
[6] = test system: Venezuelan equine encephalitis virus (Trinidad Donkey, NR-332); set-up: species or system BALB/c mice; settings: mouse, in vivo, sc
[7] = test system: influenza A/California/04/2009 (H1N1) virus; set-up: species or system BALB/c mice; settings: mouse, in vivo
[8] = test system: cytokines and chemokines in BAL fluids and sera; assay: Luminex bead assay of cytokines and chemokines in BAL fluids and sera after pulmonary administration
[9] = test system: Vaccinia virus (IHD strain); set-up: species or system BALB/c mice; settings: mouse, in vivo
[10] = test system: B220+ B cells; assay: B cell numbers in lymph nodes after pulmonary administration (flow cytometry); settings: 1 nmol, 7 days post treatment
[11] = test system: neutrophils in BAL fluids; assay: BAL cell counts (Guava cytometer, Wright-Giemsa differential) after i.t. administration; format: in vivo, C57BL/6 mice
[12] = 1 nmol i.t., 6 h post-treatment, vs vehicle
[13] = 24 h after pulmonary (i.n.) administration, up to a 4 nmol dose

Structure (SMILES): CCCCCCCC/C=C\CCCCCCCC(=O)OCC(COP(=O)(O)OCCNC(=O)c1ccc(Cn2c(=O)[nH]c3c(N)nc(OCCOC)nc32)cc1)OC(=O)CCCCCCC/C=C\CCCCCCCC (stereo not shown) [1V270, 2-(4-{[6-Amino-2-(2-methoxyethoxy)-8-oxo-7H-purin-9(8H)-yl]methyl}benzamido)ethyl 2,3-Bis(oleoyloxy)propyl Phosphate]
- survival compared to placebo-treated mice ([1]; 1 nmol/mouse i.n. at days -3 and -1, WNV s.c. day 0): not significant
- survival compared to placebo-treated mice ([1]; 1 nmol/mouse i.n. on day -1, WNV s.c. day 0 (P≦0.05)): statistically improved
- weight loss in TLR7 null mice ([2]; 75 nmol i.t., Tlr7-/- mice): did not lose weight
- MTD relative to the effective dose ([2]; MTD 75 nmol/animal vs effective dose 1 nmol): 75 times
- weight loss compared to vehicle treated mice ([2]; effective dose (1 nmoles), i.t.): did not cause significant weight loss
- effective dose ([2]; pulmonary route, mice): 1 nmol
- maximum tolerated dose (MTD) ([2]; pulmonary route, mice): 75 nmol/animal
- CD11c+ DC migration to the mediastinal lymph nodes [3]: enhanced
- inflammatory cell infiltration into the lung parenchyma [4]: did not show inflammatory cell infiltration into the lung parenchyma
- particle size ([5]; dispersed in 50 μL PBS): 100-150 nm
- particle size, average ([5]; in PBS, regardless of concentration): about 110 nm
- mice protected from encephalitis [6]: Eighty
- mice protected from lethal H1N1 pulmonary influenza infection [7]: 100%
- IL-6 in BAL fluids [8, 12]: significantly increased
- KC in BAL fluids [8, 12]: significantly increased
- MCP-1 in BAL fluids [8, 12]: significantly increased
- IP-10 induction in BAL fluids (surrogate marker of type 1 IFN) ([8]; 1 nmol i.t., monitored up to 72 h): peaked at 24 h and declined to baseline levels 72 h post treatment
- IL-6 in sera [8, 13]: minimal insignificant increase
- TNFα in sera [8, 13]: minimal insignificant increase
- Mean Day of Death ± SD [9]: 7.2 ± 0.6 days and 8.4 ± 0.5 days and 9.0 days and 8.0 days and 7.3 ± 0.8 days
- Survivors/Total [9]: 0/10 and 10/10*** and 5/10** and 9/10*** and 8/10*** and 3/10*
- body weights during the infection [9]: increased over the first three days before declining
- mice protected from death [9]: 90-100%
- preserving body weight, rank among treatments [9]: best effect in preserving body weight
- B cell number in the cervical, mesenteric and inguinal nodes [10]: did not significantly increase
- B cell number in the draining mediastinal lymph nodes [10]: did not significantly increase
- cell infiltration and neutrophil recruitment to BAL fluids in MyD88 or TLR7 null mice ([11]; 1 nmol i.t., 24 h, Myd88-/- or Tlr7-/- mice): diminished
- mononuclear cells in BAL fluids ([11]; 1 nmol i.t., 24 h after treatment, also elevated in vehicle-treated mice): slightly elevated
- neutrophil population in BAL fluids ([11]; 1 nmol i.t., 24 h and 48 h after treatment): significant increase
- total cell numbers in the BAL fluids ([11]; 1 nmol i.t., monitored for 72 h): increased over 48 h and declined to near baseline levels 72 h post pulmonary administration
- neutrophil influx dose response ([11]; 24 h post treatment, i.t.): dose responsive between 0.1 to 10 nmol

Structure (SMILES): Nc1ccn(C[C@@H](CO)OCP(=O)(O)O)c(=O)n1 [Cidofovir, reference compound]
- Survivors/Total [9]: 10/10
- effects on body weight [9]: superior to treatments with 1V270 that were started on the same day
- mice protected from death [9]: 100%
